{"source": "paper PMC6934184", "about": "“Selective DNA-PKcs inhibition extends the therapeutic index of localized radiotherapy and chemotherapy” (The Journal of Clinical Investigation, 2019)", "molecular_target": "T1, IKBKE (IKK epsilon) (Homo sapiens, UniProt Q14164)", "T1 construct": "purchased Thermo Fisher Scientific (Life Technologies) SelectScreen", "T1 sequence (Q14164 whole entry)": "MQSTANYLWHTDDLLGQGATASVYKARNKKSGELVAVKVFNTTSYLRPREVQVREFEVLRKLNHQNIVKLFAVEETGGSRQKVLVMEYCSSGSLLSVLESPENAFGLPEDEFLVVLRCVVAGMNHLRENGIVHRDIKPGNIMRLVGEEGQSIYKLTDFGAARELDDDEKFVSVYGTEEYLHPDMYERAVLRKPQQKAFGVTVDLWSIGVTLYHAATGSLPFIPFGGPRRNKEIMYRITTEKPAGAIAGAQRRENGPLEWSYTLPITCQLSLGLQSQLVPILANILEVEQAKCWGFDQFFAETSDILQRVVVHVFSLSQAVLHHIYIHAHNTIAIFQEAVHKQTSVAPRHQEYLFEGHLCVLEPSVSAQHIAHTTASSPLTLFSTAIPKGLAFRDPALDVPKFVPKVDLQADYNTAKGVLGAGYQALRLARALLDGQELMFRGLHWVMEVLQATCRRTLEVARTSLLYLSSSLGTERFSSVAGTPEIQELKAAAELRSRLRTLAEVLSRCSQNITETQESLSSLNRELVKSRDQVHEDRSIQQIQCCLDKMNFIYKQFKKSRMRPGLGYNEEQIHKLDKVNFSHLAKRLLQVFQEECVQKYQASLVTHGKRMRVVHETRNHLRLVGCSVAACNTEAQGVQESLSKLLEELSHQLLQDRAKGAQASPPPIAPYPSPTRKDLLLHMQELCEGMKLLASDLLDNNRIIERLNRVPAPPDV", "assay": "SelectScreen Z'LYTE", "type": "biochemical", "in_short": "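NU5455 was profiled across the SelectScreen Broad panel of kinase activity and binding assays. Z'LYTE reactions such as CSF1R ran at apparent Km ATP, while the Adapta CAMK1 assay used ATP listed as 10. Values are given as percent.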"}
{"molecule": "CN(C(=O)CN1CCOCC1)c1ccc2sc3c(-c4cccc5c(=O)cc(N6CC7CCC(C6)O7)oc45)cccc3c2c1", "note": "[NU5455]", "values": [{"measurement": "inhibition at 1 µM", "value": -0.7, "unit": "%"}]}
